# Reference: ChEMBL document CHEMBL3593240, “Structure-based development of nitroxoline derivatives as potential multifunctional anti-Alzheimer agents” (Bioorg Med Chem, 2015)
# Active and inactive are the calls of the source. The calls are words filed in the database; no cut-off is given here.
# Tested on: not listed separately
# Assay: Metal chelating activity of the compound assessed as Mg2+ complex formation at 30 uM after 10 mins by UV-vis spectrometry
# Format: physicochemical
row,Compound,Activity
1,COCCN(CC1CCCN(C2Cc3ccccc3C2)C1)C(=O)c1cc([N+](=O)[O-])c2cccnc2c1O (stereo not drawn),Not Active
2,COCCN(CC1CCN(Cc2nc3ccccc3o2)CC1)C(=O)c1cc([N+](=O)[O-])c2cccnc2c1O,Not Active

# Tested on: not listed separately
# Assay: Metal chelating activity of the compound assessed as Fe2+ complex formation at 30 uM after 10 mins by UV-vis spectrometry
# Format: physicochemical
row,Compound,Activity
1,O=C(NCC1CCCN(C2Cc3ccccc3C2)C1)c1cc([N+](=O)[O-])c2cccnc2c1O (stereo not drawn),Active
2,O=C(NCC1CCCN(c2nc3ccccc3s2)C1)c1cc([N+](=O)[O-])c2cccnc2c1O (stereo not drawn),Active
3,COCCN(CC1CCN(Cc2nc3ccccc3s2)CC1)C(=O)c1cc([N+](=O)[O-])c2cccnc2c1O,Active
4,O=C(NCC1CCCN(Cc2nc3ccccc3s2)C1)c1cc([N+](=O)[O-])c2cccnc2c1O (stereo not drawn),Active
5,O=C(NCC1CCCN(c2nc3ccccc3o2)C1)c1cc([N+](=O)[O-])c2cccnc2c1O (stereo not drawn),Active
6,COCCN(CC1CCCN(C2Cc3ccccc3C2)C1)C(=O)c1cc([N+](=O)[O-])c2cccnc2c1O (stereo not drawn),Active
7,COCCN(CC1CCN(Cc2nc3ccccc3o2)CC1)C(=O)c1cc([N+](=O)[O-])c2cccnc2c1O,Active

# Target: T1, Acetylcholinesterase (Mus musculus) (UniProt P21836)
# T1 sequence (whole entry): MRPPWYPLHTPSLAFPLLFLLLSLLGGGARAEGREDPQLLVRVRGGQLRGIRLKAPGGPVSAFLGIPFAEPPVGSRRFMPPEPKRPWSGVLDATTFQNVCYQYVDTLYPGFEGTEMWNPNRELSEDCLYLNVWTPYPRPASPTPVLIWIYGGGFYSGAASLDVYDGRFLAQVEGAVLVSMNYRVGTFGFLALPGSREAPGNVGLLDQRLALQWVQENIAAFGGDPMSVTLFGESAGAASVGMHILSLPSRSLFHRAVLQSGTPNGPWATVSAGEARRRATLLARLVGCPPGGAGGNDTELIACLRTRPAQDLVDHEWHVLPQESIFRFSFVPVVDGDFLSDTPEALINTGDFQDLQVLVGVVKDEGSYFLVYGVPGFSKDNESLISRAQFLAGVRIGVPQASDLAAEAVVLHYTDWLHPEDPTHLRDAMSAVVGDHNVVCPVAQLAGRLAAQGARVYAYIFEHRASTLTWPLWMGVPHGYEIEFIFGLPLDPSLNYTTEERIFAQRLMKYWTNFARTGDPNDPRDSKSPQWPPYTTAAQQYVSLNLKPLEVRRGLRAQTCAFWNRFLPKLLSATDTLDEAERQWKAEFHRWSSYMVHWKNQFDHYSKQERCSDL
# Assay: Inhibition of […] iodide as substrate assessed as residual activity at 30 uM after 5 mins by Ellman's method relative to control
Compound,Ratio,inhibition
O=C(NCC1CCCN(C2Cc3ccccc3C2)C1)c1cc([N+](=O)[O-])c2cccnc2c1O (stereo not drawn),0.641,
O=C(NCC1CCCN(c2nc3ccccc3s2)C1)c1cc([N+](=O)[O-])c2cccnc2c1O (stereo not drawn),,inactive
COCCN(CC1CCN(Cc2nc3ccccc3s2)CC1)C(=O)c1cc([N+](=O)[O-])c2cccnc2c1O,,inactive
O=C(NCC1CCCN(Cc2nc3ccccc3s2)C1)c1cc([N+](=O)[O-])c2cccnc2c1O (stereo not drawn),,inactive
COCCN(CC1CCCN(C2Cc3ccccc3C2)C1)C(=O)c1ccc2ccccc2c1 (stereo not drawn),,inactive
O=C(NCC1CCCN(c2nc3ccccc3o2)C1)c1cc([N+](=O)[O-])c2cccnc2c1O (stereo not drawn),,inactive
COCCN(CC1CCCN(C2Cc3ccccc3C2)C1)C(=O)c1cc([N+](=O)[O-])c2cccnc2c1O (stereo not drawn),,inactive
COCCN(CC1CCN(Cc2nc3ccccc3o2)CC1)C(=O)c1cc([N+](=O)[O-])c2cccnc2c1O,,inactive

# Target: Amyloid-beta precursor protein (Homo sapiens) (UniProt P05067)
# Sequence (P05067 whole entry): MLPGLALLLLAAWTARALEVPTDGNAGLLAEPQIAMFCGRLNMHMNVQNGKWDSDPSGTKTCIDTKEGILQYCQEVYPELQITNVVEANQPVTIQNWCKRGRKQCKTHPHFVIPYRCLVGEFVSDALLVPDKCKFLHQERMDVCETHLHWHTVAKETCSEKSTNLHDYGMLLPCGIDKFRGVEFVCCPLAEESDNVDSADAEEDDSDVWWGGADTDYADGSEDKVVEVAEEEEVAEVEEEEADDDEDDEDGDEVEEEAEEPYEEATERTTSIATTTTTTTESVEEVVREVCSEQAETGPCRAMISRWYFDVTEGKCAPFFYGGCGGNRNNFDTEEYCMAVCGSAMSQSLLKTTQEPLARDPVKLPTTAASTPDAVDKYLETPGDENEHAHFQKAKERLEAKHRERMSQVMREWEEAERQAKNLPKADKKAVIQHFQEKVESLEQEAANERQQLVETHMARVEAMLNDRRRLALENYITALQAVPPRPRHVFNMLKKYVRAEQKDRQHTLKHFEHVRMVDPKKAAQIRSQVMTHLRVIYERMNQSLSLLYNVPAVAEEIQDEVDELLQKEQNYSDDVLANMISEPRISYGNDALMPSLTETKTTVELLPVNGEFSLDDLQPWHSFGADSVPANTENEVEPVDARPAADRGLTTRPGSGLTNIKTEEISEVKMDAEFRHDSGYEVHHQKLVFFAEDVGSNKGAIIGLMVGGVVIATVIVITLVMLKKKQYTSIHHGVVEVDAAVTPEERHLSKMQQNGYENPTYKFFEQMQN
# Assay: Inhibition of human recombinant amyloid beta (1 to 42) self aggregation at 10 uM after 12 hrs by dot-blot assay
row,Compound,inhibition [%]
1,O=C(NCC1CCCN(C2Cc3ccccc3C2)C1)c1cc([N+](=O)[O-])c2cccnc2c1O (stereo not drawn),28.7
2,O=C(NCC1CCCN(c2nc3ccccc3s2)C1)c1cc([N+](=O)[O-])c2cccnc2c1O (stereo not drawn),33.3
3,COCCN(CC1CCN(Cc2nc3ccccc3s2)CC1)C(=O)c1cc([N+](=O)[O-])c2cccnc2c1O,44.2
4,O=C(NCC1CCCN(Cc2nc3ccccc3s2)C1)c1cc([N+](=O)[O-])c2cccnc2c1O (stereo not drawn),53.4
5,O=C(NCC1CCCN(c2nc3ccccc3o2)C1)c1cc([N+](=O)[O-])c2cccnc2c1O (stereo not drawn),35.5
6,COCCN(CC1CCCN(C2Cc3ccccc3C2)C1)C(=O)c1cc([N+](=O)[O-])c2cccnc2c1O (stereo not drawn),20.1
7,COCCN(CC1CCN(Cc2nc3ccccc3o2)CC1)C(=O)c1cc([N+](=O)[O-])c2cccnc2c1O,34.9

# Tested on: not listed separately
# Assay: Metal chelating activity of the compound assessed as Co2+ complex formation at 30 uM after 10 mins by UV-vis spectrometry
# Format: physicochemical
row,Compound,Activity
1,O=C(NCC1CCCN(C2Cc3ccccc3C2)C1)c1cc([N+](=O)[O-])c2cccnc2c1O (stereo not drawn),Active
2,O=C(NCC1CCCN(c2nc3ccccc3s2)C1)c1cc([N+](=O)[O-])c2cccnc2c1O (stereo not drawn),Active
3,COCCN(CC1CCN(Cc2nc3ccccc3s2)CC1)C(=O)c1cc([N+](=O)[O-])c2cccnc2c1O,Active
4,O=C(NCC1CCCN(Cc2nc3ccccc3s2)C1)c1cc([N+](=O)[O-])c2cccnc2c1O (stereo not drawn),Active
5,O=C(NCC1CCCN(c2nc3ccccc3o2)C1)c1cc([N+](=O)[O-])c2cccnc2c1O (stereo not drawn),Active
6,COCCN(CC1CCCN(C2Cc3ccccc3C2)C1)C(=O)c1cc([N+](=O)[O-])c2cccnc2c1O (stereo not drawn),Active
7,COCCN(CC1CCN(Cc2nc3ccccc3o2)CC1)C(=O)c1cc([N+](=O)[O-])c2cccnc2c1O,Active

# Target: T2, Cholinesterase (Homo sapiens, UniProt P06276)
# T2 sequence (P06276 whole entry): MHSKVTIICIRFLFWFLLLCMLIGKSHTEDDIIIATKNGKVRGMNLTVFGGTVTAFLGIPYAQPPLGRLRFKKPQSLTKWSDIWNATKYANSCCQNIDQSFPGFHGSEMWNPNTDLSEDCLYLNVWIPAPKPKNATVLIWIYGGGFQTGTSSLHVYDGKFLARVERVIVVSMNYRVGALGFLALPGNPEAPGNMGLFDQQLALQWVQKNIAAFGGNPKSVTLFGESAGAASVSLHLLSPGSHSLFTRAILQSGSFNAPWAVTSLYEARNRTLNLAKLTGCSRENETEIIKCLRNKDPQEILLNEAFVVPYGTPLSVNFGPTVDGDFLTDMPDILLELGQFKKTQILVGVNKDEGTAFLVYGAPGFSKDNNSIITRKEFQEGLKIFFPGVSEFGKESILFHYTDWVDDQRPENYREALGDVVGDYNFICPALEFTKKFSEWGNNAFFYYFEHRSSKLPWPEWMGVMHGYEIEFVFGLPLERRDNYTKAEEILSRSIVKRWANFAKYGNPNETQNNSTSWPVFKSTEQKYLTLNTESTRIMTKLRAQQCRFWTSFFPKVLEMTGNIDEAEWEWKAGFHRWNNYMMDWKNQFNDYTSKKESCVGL
# Assay: Inhibition of human recombinant BChE using butyrylthiocholine iodide as substrate assessed as residual activity at 30 uM after 5 mins by Ellman's method relative to control
Compound,Ratio,inhibition
O=C(NCC1CCCN(C2Cc3ccccc3C2)C1)c1cc([N+](=O)[O-])c2cccnc2c1O (stereo not drawn),0.747,
O=C(NCC1CCCN(c2nc3ccccc3s2)C1)c1cc([N+](=O)[O-])c2cccnc2c1O (stereo not drawn),,inactive
COCCN(CC1CCN(Cc2nc3ccccc3s2)CC1)C(=O)c1cc([N+](=O)[O-])c2cccnc2c1O,0.129,
O=C(NCC1CCCN(Cc2nc3ccccc3s2)C1)c1cc([N+](=O)[O-])c2cccnc2c1O (stereo not drawn),0.444,
O=C(NCC1CCCN(c2nc3ccccc3o2)C1)c1cc([N+](=O)[O-])c2cccnc2c1O (stereo not drawn),0.914,
COCCN(CC1CCCN(C2Cc3ccccc3C2)C1)C(=O)c1cc([N+](=O)[O-])c2cccnc2c1O (stereo not drawn),0.014,
COCCN(CC1CCN(Cc2nc3ccccc3o2)CC1)C(=O)c1cc([N+](=O)[O-])c2cccnc2c1O,0.805,

# Tested on: not listed separately
# Assay: Antioxidant activity assessed as DPPH radical scavenging activity
# Format: physicochemical
row,Compound,EC50 [µM]
1,O=C(NCC1CCCN(C2Cc3ccccc3C2)C1)c1cc([N+](=O)[O-])c2cccnc2c1O (stereo not drawn),524
2,O=C(NCC1CCCN(c2nc3ccccc3s2)C1)c1cc([N+](=O)[O-])c2cccnc2c1O (stereo not drawn),3830
3,COCCN(CC1CCN(Cc2nc3ccccc3s2)CC1)C(=O)c1cc([N+](=O)[O-])c2cccnc2c1O,4140
4,O=C(NCC1CCCN(Cc2nc3ccccc3s2)C1)c1cc([N+](=O)[O-])c2cccnc2c1O (stereo not drawn),1330
5,O=C(NCC1CCCN(c2nc3ccccc3o2)C1)c1cc([N+](=O)[O-])c2cccnc2c1O (stereo not drawn),881
6,COCCN(CC1CCCN(C2Cc3ccccc3C2)C1)C(=O)c1cc([N+](=O)[O-])c2cccnc2c1O (stereo not drawn),3450
7,O=c1c(O)c(-c2ccc(O)c(O)c2)oc2cc(O)cc(O)c12 [QUERCETIN],10.9
8,COCCN(CC1CCN(Cc2nc3ccccc3o2)CC1)C(=O)c1cc([N+](=O)[O-])c2cccnc2c1O,770

# Tested on: not listed separately
# Assay: Solubility of the compound at 30 uM
# Format: physicochemical
row,Compound,solubility
1,O=C(NCC1CCCN(C2Cc3ccccc3C2)C1)c1cc([N+](=O)[O-])c2cccnc2c1O (stereo not drawn),soluble
2,O=C(NCC1CCCN(c2nc3ccccc3s2)C1)c1cc([N+](=O)[O-])c2cccnc2c1O (stereo not drawn),soluble
3,COCCN(CC1CCN(Cc2nc3ccccc3s2)CC1)C(=O)c1cc([N+](=O)[O-])c2cccnc2c1O,soluble
4,O=C(NCC1CCCN(Cc2nc3ccccc3s2)C1)c1cc([N+](=O)[O-])c2cccnc2c1O (stereo not drawn),soluble
5,O=C(NCC1CCCN(c2nc3ccccc3o2)C1)c1cc([N+](=O)[O-])c2cccnc2c1O (stereo not drawn),soluble
6,COCCN(CC1CCCN(C2Cc3ccccc3C2)C1)C(=O)c1cc([N+](=O)[O-])c2cccnc2c1O (stereo not drawn),soluble
7,COCCN(CC1CCN(Cc2nc3ccccc3o2)CC1)C(=O)c1cc([N+](=O)[O-])c2cccnc2c1O,soluble

# Tested on: not listed separately
# Assay: Metal chelating activity of the compound assessed as Ca2+ complex formation at 30 uM after 10 mins by UV-vis spectrometry
# Format: physicochemical
row,Compound,Activity
1,COCCN(CC1CCCN(C2Cc3ccccc3C2)C1)C(=O)c1cc([N+](=O)[O-])c2cccnc2c1O (stereo not drawn),Not Active
2,COCCN(CC1CCN(Cc2nc3ccccc3o2)CC1)C(=O)c1cc([N+](=O)[O-])c2cccnc2c1O,Not Active

# Tested on: not listed separately
# Assay: Metal chelating activity of the compound assessed as Zn2+ complex formation at 30 uM after 10 mins by UV-vis spectrometry
# Format: physicochemical
row,Compound,Activity
1,O=C(NCC1CCCN(C2Cc3ccccc3C2)C1)c1cc([N+](=O)[O-])c2cccnc2c1O (stereo not drawn),Active
2,O=C(NCC1CCCN(c2nc3ccccc3s2)C1)c1cc([N+](=O)[O-])c2cccnc2c1O (stereo not drawn),Active
3,COCCN(CC1CCN(Cc2nc3ccccc3s2)CC1)C(=O)c1cc([N+](=O)[O-])c2cccnc2c1O,Active
4,O=C(NCC1CCCN(Cc2nc3ccccc3s2)C1)c1cc([N+](=O)[O-])c2cccnc2c1O (stereo not drawn),Active
5,O=C(NCC1CCCN(c2nc3ccccc3o2)C1)c1cc([N+](=O)[O-])c2cccnc2c1O (stereo not drawn),Active
6,COCCN(CC1CCCN(C2Cc3ccccc3C2)C1)C(=O)c1cc([N+](=O)[O-])c2cccnc2c1O (stereo not drawn),Active
7,COCCN(CC1CCN(Cc2nc3ccccc3o2)CC1)C(=O)c1cc([N+](=O)[O-])c2cccnc2c1O,Active

# Tested on: not listed separately
# Assay: Binding affinity to Cu2+ using CuCl2 at 30 uM after 45 mins
row,Compound,Activity
1,COCCN(CC1CCCN(C2Cc3ccccc3C2)C1)C(=O)c1cc([N+](=O)[O-])c2cccnc2c1O (stereo not drawn),Active

# Target: not listed separately
# Assay: Binding affinity to Cu2+ using CuCl2 at 30 uM by isothermal titration calorimetry analysis
row,Compound,Kd [µM]
1,COCCN(CC1CCCN(C2Cc3ccccc3C2)C1)C(=O)c1cc([N+](=O)[O-])c2cccnc2c1O (stereo not drawn),0.25

# Target: T2, Cholinesterase
# Description: Inhibition of human recombinant BChE using butyrylthiocholine iodide as substrate after 5 mins by Ellman's method
row,Compound,IC50 [µM]
1,COCCN(CC1CCN(Cc2nc3ccccc3s2)CC1)C(=O)c1cc([N+](=O)[O-])c2cccnc2c1O,2.14
2,COCCN(CC1CCCN(C2Cc3ccccc3C2)C1)C(=O)c1cc([N+](=O)[O-])c2cccnc2c1O (stereo not drawn),0.215

# Tested on: not listed separately
# Assay: Metal chelating activity of the compound assessed as Cu2+ complex formation at 30 uM after 10 mins by UV-vis spectrometry
# Format: physicochemical
row,Compound,Activity
1,O=C(NCC1CCCN(C2Cc3ccccc3C2)C1)c1cc([N+](=O)[O-])c2cccnc2c1O (stereo not drawn),Active
2,O=C(NCC1CCCN(c2nc3ccccc3s2)C1)c1cc([N+](=O)[O-])c2cccnc2c1O (stereo not drawn),Active
3,COCCN(CC1CCN(Cc2nc3ccccc3s2)CC1)C(=O)c1cc([N+](=O)[O-])c2cccnc2c1O,Active
4,O=C(NCC1CCCN(Cc2nc3ccccc3s2)C1)c1cc([N+](=O)[O-])c2cccnc2c1O (stereo not drawn),Active
5,O=C(NCC1CCCN(c2nc3ccccc3o2)C1)c1cc([N+](=O)[O-])c2cccnc2c1O (stereo not drawn),Active
6,COCCN(CC1CCCN(C2Cc3ccccc3C2)C1)C(=O)c1cc([N+](=O)[O-])c2cccnc2c1O (stereo not drawn),Active
7,COCCN(CC1CCN(Cc2nc3ccccc3o2)CC1)C(=O)c1cc([N+](=O)[O-])c2cccnc2c1O,Active
